Test results as given in patent publication US7642364B2, “Benzopyrone compounds, preparation method and use thereof” (Shenyang Research Institute of Chemical Industry, priority 2003, dated 2010).

Columns and labels:
[1] = tested on: cucumber downy mildew; test: Fungicidal activity on potted plants, cucumber downy mildew; format: in vivo; conditions: for control(%) fungicidal activity against cucumber downy mildew: 50 ppm; for control against cucumber downy mildew: 200 ppm, spray on potted plant
[2] = tested on: culex mosquitoes; test: Insecticidal/acaricidal activity, culex mosquitoes; format: in vivo; conditions: 10 ppm
[3] = tested on: cucumber grey mold; test: Fungicidal activity on potted plants, cucumber grey mold; format: in vivo; conditions: 200 ppm
[4] = tested on: tomato late blight; format: in vivo; conditions: 200 ppm
[5] = tested on: wheat leaf rust; test: Fungicidal activity on potted plants, wheat leaf rust; format: in vivo; conditions: 200 ppm
[6] = tested on: grape downy mildew; test: Fungicidal activity on potted plants, grape downy mildew; format: in vivo; conditions: 200 ppm
[7] = tested on: wheat leaf blotch; test: Fungicidal activity on potted plants, wheat leaf blotch; format: in vivo; conditions: 200 ppm
[8] = tested on: Mexican lady beetle; test: Insecticidal/acaricidal activity, Mexican lady beetle; format: in vivo; conditions: 300 ppm
Method: Numerous insect larvae were put into containers then were fed with treated corn leaves. Potter's spraying tower was used as the sprayer and spraying volume was 1 mL. The spraying pressure was 13.5 lb/in^2.

[9] = tested on: two-spotted spider mite; test: Insecticidal/acaricidal activity, two-spotted spider mite; format: in vivo; conditions: 300 ppm
[10] = tested on: tomato early stage blight; test: Fungicidal activity on potted plants, tomato early stage blight; format: in vivo; conditions: 200 ppm
[11] = tested on: wheat powdery mildew; test: Fungicidal activity on potted plants, wheat powdery mildew; format: in vivo; conditions: 200 ppm
[12] = Biological evaluation of compound JP51 after synthesis; conditions: after synthesis and the biological evaluation
Text: Biological active data of the compound in JP04-182461 have not been disclosed.

SMILES	control(%) fungicidal activity against cucumber downy mildew [1]	control against cucumber downy mildew [1]	also measured
COC=C(C(=O)OC)c1ccccc1COc1ccc2ccc(=O)oc2c1 [Compound 1]	100%	100%	
COC=C(C(=O)OC)c1ccccc1COc1ccc2c(C)cc(=O)oc2c1 [Compound 2]	100%	100%	control of culex mosquitoes [2]: 100%; control against cucumber grey mold [3]: 100%
COC=C(C(=O)OC)c1ccccc1COc1ccc2c(-c3ccccc3)cc(=O)oc2c1C [Compound 4]		100%	
COC=C(C(=O)OC)c1ccccc1COc1ccc2c(C)c(C)c(=O)oc2c1 [Compound 5]	100%	100%	control of culex mosquitoes [2]: 100%
COC=C(C(=O)OC)c1ccccc1COc1ccc2c(C)c(C)c(=O)oc2c1C [Compound 6]	100%	100%	control against tomato late blight [4]: > 95%; control of culex mosquitoes [2]: 100%; control against wheat leaf rust [5]: 100%; control against grape downy mildew [6]: 100%; control against wheat leaf blotch [7]: > 90%; control against cucumber grey mold [3]: 100%
COC=C(C(=O)OC)c1ccccc1COc1ccc2c(C(F)(F)F)cc(=O)oc2c1 [Compound 7]			control of Mexican lady beetle [8]: 100%; control of two-spotted spider mite [9]: > 50%; control against grape downy mildew [6]: 100%
COC=C(C(=O)OC)c1ccccc1COc1cc2oc(=O)cc(C)c2cc1C(C)=NOC [Compound 9]			control of Mexican lady beetle [8]: 100%
COC=C(C(=O)OC)c1ccccc1COc1cc2oc(=O)cc(C)c2cc1C(C)=O [Compound 10]			control against tomato late blight [4]: > 75%; control of Mexican lady beetle [8]: 100%; control against grape downy mildew [6]: 100%
COC=C(C(=O)OC)c1ccccc1COc1ccc2c(C)cc(=O)oc2c1C(C)=O [Compound 11]			control against tomato early stage blight [10]: > 75%
COC=C(C(=O)OC)c1ccccc1COc1ccc2c(C)c(Cl)c(=O)oc2c1 [Compound 12]	100%	100%	
CCc1c(C)c2ccc(OCc3ccccc3C(=COC)C(=O)OC)cc2oc1=O [Compound 18]		100%	control against cucumber grey mold [3]: 100%
COC=C(C(=O)OC)c1ccccc1COc1ccc2c(COC)cc(=O)oc2c1 [Compound 19]		100%	
COC=C(C(=O)OC)c1ccccc1COc1ccc2c(C)c(Cl)c(=O)oc2c1C [Compound 25]		100%	
COC=C(C(=O)OC)c1ccccc1COc1ccc2c(C(C)C)cc(=O)oc2c1 [Compound 26]	100%	100%	
CCc1cc(=O)oc2cc(OCc3ccccc3C(=COC)C(=O)OC)ccc12 [Compound 33]		100%	
CCCc1cc(=O)oc2cc(OCc3ccccc3C(=COC)C(=O)OC)ccc12 [Compound 34]		100%	
CCCc1cc(=O)oc2c(C)c(OCc3ccccc3C(=COC)C(=O)OC)ccc12 [Compound 35]		100%	

SMILES	control(%) fungicidal activity against cucumber downy mildew [1]	control against cucumber downy mildew [1]	also measured
CCCc1c(C)c(=O)oc2cc(OCc3ccccc3C(=COC)C(=O)OC)ccc12 [Compound 37]	100%	100%	
COC=C(C(=O)OC)c1ccccc1COc1ccc2c(C)c(F)c(=O)oc2c1 [Compound 50]		100%	control against cucumber grey mold [3]: 100%
COC=C(C(=O)OC)c1ccccc1COc1ccc2c(-c3ccccc3)cc(=O)oc2c1 [Compound 52]	100%	100%	
COC=C(C(=O)OC)c1ccccc1COc1ccc2c(-c3ccc(OC)c(OC)c3)cc(=O)oc2c1 [Compound 58]		100%	control against cucumber grey mold [3]: 100%
COC=C(C(=O)OC)c1ccccc1COc1ccc2c(C)c(Cc3ccccc3)c(=O)oc2c1C [Compound 69]		100%	
CON=C(C(=O)OC)c1ccccc1COc1ccc2c(C)c(Cl)c(=O)oc2c1 [Compound 100]			control against cucumber grey mold [3]: 100%
CON=C(C(=O)OC)c1ccccc1COc1ccc2c(C)c(Cl)c(=O)oc2c1C [Compound 109]		100%	
CON=C(C(=O)OC)c1ccccc1COc1cc2oc(=O)cc(-c3cccc(C(F)(F)F)c3)c2cc1C(C)=O [Compound 141]	100%		
CCCCc1c(C)c2ccc(OCc3ccccc3C(=COC)C(=O)OC)cc2oc1=O [Compound 402]	100%	100%	control against wheat powdery mildew [11]: 100%; control against cucumber grey mold [3]: 100%
CCCCCCc1c(C)c2ccc(OCc3ccccc3C(=COC)C(=O)OC)cc2oc1=O [Compound 405]	100%	100%	
CCCc1c(CCC)c2ccc(OCc3ccccc3C(=COC)C(=O)OC)cc2oc1=O [Compound 409]	100%	100%	
CCCc1c(Cl)c(=O)oc2cc(OCc3ccccc3C(=NOC)C(=O)OC)ccc12 [Compound 410]		100%	
CCCc1c(C)c2ccc(OCc3ccccc3C(=NOC)C(=O)OC)cc2oc1=O [Compound 412]			control against wheat powdery mildew [11]: 100%
CCCCc1c(C)c2ccc(OCc3ccccc3C(=NOC)C(=O)OC)cc2oc1=O [Compound 413]		100%	control against wheat powdery mildew [11]: 100%
CCCCCCc1c(C)c2ccc(OCc3ccccc3C(=NOC)C(=O)OC)cc2oc1=O [Compound 414]		100%	
CNC(=O)/C(=N/OC)c1ccccc1COc1ccc2ccc(=O)oc2c1 [JP51, reference compound]	20%		biological activity (general statement) [12]: low biological active
